Measured values reported in US8637554B2, “Methods for treating thyroid cancer” (The Trustees of the University of Pennsylvania, priority 2008, dated 2014).
“And” between values parts separate entries of the source, which are not always exact repeats. Equal values may be shown once. “Also recorded” adds a separate entry of the source.

Assays:
Format in all cases: in vivo, human
[1] = tested on: solid malignancies (tumor neovasculature); test: DCE-MRI (Ktr) in CA4P clinical trials
Procedure: The results in the CA4P trials were variable. In DCE-MRI, the rate constant Ktrans (Ktr), representing the rate of passage of gadolinium from the plasma into the tumor interstitium, is determined. Ktr itself is determined as a function of both tumor blood flow and vascular permeability, thus serving as a marker of the status of the tumor neovasculature.

Ki-67 = test: Immunohistochemistry of patient tumor tissue before and on sorafenib: Ki-67
Source text: (§1) Paraffin embedded tumor specimens from the patients' primary surgery and from lymph node biopsies after two weeks (Patient 1) and 17 months on treatment (Patient 2) were obtained. Thin (5 μm) sections from tumor tissue were cut and stained for the proliferation marker Ki-67 (Dakocytomation), and signaling markers p-ERK and p-AKT (Cell Signaling Technology) which are downstream indicators of BRAF and VEGFR2 activity. P-ERK is good reporter for BRAF activity, while p-AKT likely reflects signaling through several pathways including VEGFR. Slides were counterstained with hematoxylin and mounted in vectashield (Vector Labs). Two independent, blinded pathologists scored the slides based on intensity of stain and percent of cells staining positively.
(§2) Proliferation and cellular signaling in the tumor cell (TC) and the endothelial cell (EC) compartments were evaluated by immunohistochemistry (IHC).

[2] = Phase II study of sorafenib: adverse events (CTCAE v3.0), dose changes, TSH
Source text: (§3) This was an open-label, single institution phase II study of oral sorafenib in patients with metastatic thyroid carcinoma, including differentiated, poorly differentiated, medullary, and anaplastic subtypes. […] A cycle was defined as 4 weeks. Screening evaluations were completed within 2 weeks prior to the start of study drug, including medical history, demography, review of prior treatment, physical exam, 12-lead EKG, and laboratory evaluations including serum thyroid stimulating hormone (TSH) and thyroglobulin, and urinalysis. Radiological tests to identify target lesions were performed within 4 weeks of the first dose of study drug.
(§4) After beginning treatment, patients were followed at four-week intervals. At each visit, a history and physical examination were performed, and a CBC, chemistry panel, TSH and thyroglobulin drawn. Patients were assessed for new symptoms, compliance with study medications (pill count), and concomitant medications. Dose adjustments were made as needed for toxicity. Response was assessed radiographically after eight and sixteen weeks of treatment and every twelve weeks thereafter.
(§5) The study endpoints of best objective response rate and stable disease were measured based on the findings on computed tomography (CT) or magnetic resonance imaging (MRI) using RECIST. Additional endpoints included best response, duration of response and time to disease progression (TTP) on the basis of RECIST, clinical progression, or death. While TTP was the original endpoint, PFS and TTP were identical in this study, and PFS have been used in this report as it has become the more standard progression endpoint. All responses were confirmed by a study-designated radiologist. Adverse events were graded with the use of Common Terminology Criteria for Adverse Events, version 3.0 (CTCAE v3.0).

[3] = tested on: metastatic thyroid carcinoma; test: Open-label phase II study of oral sorafenib in metastatic thyroid carcinoma: best response by RECIST, PFS/TTP
Source text: Eligible patients were >18 years old with metastatic or unresectable thyroid carcinoma for which curative measures were no longer effective. Patients had evidence of measurable disease by RECIST criteria. All patients enrolled had evidence of disease progression in the year prior to initiation of treatment. Prior radioactive iodine treatments and one prior biologic treatment (kinase inhibitor, vaccine or antibody-based therapy) were allowed, but not within 3 weeks of treatment. […] Pre-menopausal women were required to have a negative pregnancy test and all patients of were required to use contraception.
Patients were ineligible if they had previous exposure to a Ras pathway inhibitor (including trastuzumab, EGFR inhibitors, farnesyl transferase inhibitors or MEK inhibitors) or were unable to swallow and retain oral pills. All patients provided written informed consent prior to enrollment on the trial. The study protocol was approved by the Institutional Review Board of the University of Pennsylvania.
as §3, §4, §5
This study was designed to exclude the null hypothesis response rate of 5% using a Simon two-stage design; the first stage included 30 patients, with an optional second stage including 25 additional patients if at least one response was observed. The observed response rate was tested against the null rate of 5% using an exact test for binomial proportions. Estimates of PFS (time from beginning on study drug to earlier of progression or death) with associated 95% confidence intervals were obtained using the method of Kaplan and Meier. Comparison of PFS among histological subtypes was conducted using the logrank test. All enrolled patients who received at least one day of treatment were included in this intent-to-treat analysis.
2) Evidence of measurable disease by RECIST criteria 3) Any number of prior radioactive iodine treatments and up to one prior biologic treatment.
Primary Endpoint: Efficacy of sorafenib (objective response rate) in patients with metastatic thyroid carcinoma.
Patients on study were monitored with CT scans every 2 months and PET scans prior to beginning therapy and 4 weeks after starting treatment. […]

p-ERK = test: Immunohistochemistry of patient tumor tissue before and on sorafenib: p-ERK
Source text: as §1, §2

[4] = tested on: metastatic papillary thyroid carcinoma (mPTC); test: Response by CT and PET scan in two patients with metastatic papillary thyroid carcinoma on sorafenib
Procedure: Patient 1: A person palpated a right-sided neck mass in August 2004. The patient underwent total thyroidectomy with lymph node dissection and pathology confirmed mPTC in one of eight lymph nodes. They were treated with ^131I and placed on thyroid hormone replacement. In August 2005, an enlarged lymph node was palpated in their neck.
Treatment began on Apr. 18, 2006. Toxicity was assessed at every four weeks and response to treatment was assessed using serial CT and PET scans.
Patient 2: A person presented with a sore throat in March 2002. Their physician noted only right sided cervical lymphadenopathy. […] Thyroidectomy and right neck lymph node dissection removed a 2.5 cm tall-cell PTC with 12 of 49 lymph nodes containing mPTC.
PET scans were obtained on a dedicated whole-body PET scanner (C-PET, Phillips). At FDG injection, patients had fasted for 6 hours and blood glucose levels were less than 150 mg/dL. Image acquisition started 60 min following intravenous administration of FDG at a dose of 1.85 MBq/kg (0.05 mCi/kg) body weight. A transmission scan was obtained for attenuation correction.

p-AKT = test: Immunohistochemistry of patient tumor tissue before and on sorafenib: p-AKT
Source text: as §1, §2

serum thyroglobulin = test: Serum thyroglobulin (sTG) monitoring in patients on sorafenib
Source text: as §3, §4
sTG levels are monitored monthly as part of the clinical trial. As sTG can rise due inadequate suppression of TSH, sTG levels are analyzed in the context of the serum TSH. In patients where […]. In addition, high levels of anti sTG antibodies can render the sTG levels un-interpretable. To date one patient has TSH that was not adequately controlled, and a second patient with anti sTG antibodies in excess of 1000 IU/ml. These patients are excluded from this analysis. sTG levels are correlated with clinical outcomes, and results of imaging and tissue analysis as described in the section on statistical analysis below.

[5] = Patient 2, after 17 months of treatment
[6] = Table 3 summary, 42 total / 31 evaluable patients
[7] = first 30 patients as of May 25, 2008, follow-up Kaplan-Meier analysis
[8] = first 30 patients, intention-to-treat
[9] = first 30 patients, intention-to-treat, 400 mg orally twice a day
[10] = Patient 1, after 2 weeks of treatment

## COc1ccc(/C=C\c2cc(OC)c(OC)c(OC)c2)cc1OP(=O)(O)O [CA4P]
[1]; certain patients, larger pre-treatment tumor Ktr values, incl. two with thyroid cancer
  Ktr response: Strong Ktr responses
[1]; other patients
  Ktr response: little or no effect

## CNC(=O)c1cc(Oc2ccc(NC(=O)Nc3ccc(Cl)c(C(F)(F)F)c3)cc2)ccn1 [sorafenib]
Ki-67; Patient 1, tissue after two weeks of treatment (pre-treatment 1% of TCs)
  Ki-67 positive cells: less than 1%
Ki-67; [5]
  Ki-67 positive TCs versus pre-treatment: no change in the number of positive cells
[2]; 30 patients
  Patients requiring drug holidays due to adverse events: 63%
  Patients who discontinued treatment due to adverse events: 20%
  Patients who experienced some weight loss: 60%
  Patients with doses reduced to control toxicities: 47%
[2]; CTCAE grade
  Toxicity leading to withdrawal, single patients: grade 3 rash; also recorded: grade 2 fatigue; also recorded: grade 4 liver toxicity
[2]; CTCAE v3.0
  Severity of treatment-related adverse events: predominantly of grade 1 or 2
[2]; Table 3 summary, 42 total patients
  Patients WD due to toxicity, number: 2
[2]; despite dose reductions and cessation
  Outcome of LFT elevations after eight weeks, one patient: died of liver failure
[2]; while on sorafenib, 30 patients
  Patients with rise in serum TSH to levels greater than 0.10 mIU/L: 33%
[3]; [6]
  Clinical benefit (PR + SD) rate: 72%
  Clinical benefit (PR + SD), number of patients: 13
  Partial response (≧30%) rate: 24%
  Partial response (≧30%), number of patients: 10
  Stable disease rate: 48%
  Stable disease, number of patients: 19
[3]; all 30 patients, Kaplan-Meier, analysis four months after last patient started
  Overall median progression free survival: 79 weeks and 79.0 weeks
[3]; differentiated thyroid cancers alone, Kaplan-Meier
  DTC patients median progression free survival: 84 weeks
[3]; first 30 patients
  Largest decrease in target lesions by RECIST (upper end of range of responses): 80%
[3]; [7]
  Median time to progression / PFS, all patients: 72 weeks
  Median time to progression / PFS, differentiated thyroid cancers (DTC): 84 weeks
[3]; [8]
  Clinical benefit (PR + SD), number of patients: 23
  Partial response (PR, ≧30%), number of patients: 7
  Progressive disease as best response, number of patients: 2
  Progressive disease as best response, rate: (3%)
  Stable disease (SD), number of patients: 16
[3]; [9]
  Best response by RECIST: complete response rate: (0%)
  Best response by RECIST: complete response, number of patients: 0
[3]; patient with poorly differentiated thyroid cancer, at 4 weeks, before progression
  Decrease in size of visible shoulder nodule: 50%
[3]; person, follicular thyroid cancer, after 16 weeks, FIG. 3A
  CT response of target lesions, lung metastases: partial response
[3]; person, papillary thyroid cancer, miliary lung metastases, after 33 weeks, FIG. 3B
  CT burden of lung disease: marked improvement
[3]; two patients of FIG. 3, within the first six months of treatment
  Disease symptoms (cough, dyspnea on exertion): complete resolution of their symptoms
p-ERK; [10]
  p-ERK staining in ECs: no longer detected
  p-ERK staining in TCs: decreased
p-ERK; [5]
  p-ERK expression in ECs: markedly increased
  p-ERK staining in TCs: unchanged
[4]; Patient 1
  Progression-free survival: ≥ 1.3 years
[4]; Patient 1, after 12 months
  Decrease of target lesions (PR): 30%
[4]; Patient 1, after 12 weeks
  Decrease in size of lung lesions by RECIST: 25%
[4]; Patient 2
  Progression-free survival: ≥ 3.7 years
[4]; Patient 2, after 3.7 years on sorafenib
  Maintained partial response: 70%
[4]; Patient 2, after 12 weeks
  Decrease of largest target lesion: 52%
[4]; Patient 2, continued shrinkage after 20 weeks
  Decrease of largest target lesion: 72%
p-AKT; [10]
  p-AKT staining in ECs: decreased
  p-AKT staining in TCs: did not show any change
p-AKT; Patient 2, at 17 months
  p-AKT staining in ECs and TCs: slight increase
Serum thyroglobulin; Seventeen of 19 patients with serial levels
  Patients with marked response in serum thyroglobulin levels: 95%
Serum thyroglobulin; approximately 15 new patients enrolled since November 2008, iodine non-avid metastatic thyroid cancer
  Thyroglobulin levels: increased
Serum thyroglobulin; inferred from thyroglobulin levels, iodine non-avid metastatic thyroid cancer
  Iodine uptake: effective in increasing the iodine uptake
Serum thyroglobulin; most patients, first two to four months
  Course of sTG early on treatment: falls precipitously; also recorded: dropped precipitously
Serum thyroglobulin; patient 5, stably suppressed TSH, FIG. 4
  Initial decline of serum thyroglobulin (sTG): 25 % baseline levels
Serum thyroglobulin; within four months of starting treatment
  Mean decrease in serum thyroglobulin: 70%
